Data taken from ChEMBL document CHEMBL5584309, “Discovery of Novel Mcl-1 Inhibitors with a 3-Substituted-1H-indole-1-yl Moiety Binding to the P1-P3 Pockets to Induce Apoptosis in Acute Myeloid Leukemia Cells” (J Med Chem, 2024).
Activity calls are given as the source filed them. No cut-off for these calls is given here.

Columns and labels:
[1] = test system: THP-1; experiment: Induction of apoptosis in human THP-1 cells assessed as early apoptotic cells at 10 uM measured after 24 hrs by Annexin V-FITC/propidium iodide double staining based assay (reference value: 4.04%); format: functional
[2] = test system: HL-60; experiment: Induction of apoptosis in human HL-60 cells assessed as late apoptotic cells at 10 uM measured after 24 hrs by Annexin V-FITC/propidium iodide double staining based assay (reference value: 3.78%); format: functional
[3] = test system: U-937; experiment: Antiproliferative activity against human U-937 cells assessed as growth inhibition measured after 72 hrs by CCK-8 assay; format: functional, cell-based; conditions: U-937, 72 h
[4] = test system: HL-60; experiment: Induction of apoptosis in human HL-60 cells assessed as necrotic cells at 10 uM measured after 24 hrs by Annexin V-FITC/propidium iodide double staining based assay (reference value: 0.18%); format: functional
[5] = Metabolic stability in rat liver microsomes assessed as half life by LC-MS/MS analysis; format: ADME, Microsome
[6] = test system: THP-1; experiment: Induction of apoptosis in human THP-1 cells assessed as early apoptotic cells at 20 uM measured after 24 hrs by Annexin V-FITC/propidium iodide double staining based assay (reference value: 4.04%); format: functional
[7] = Metabolic stability in rat liver microsomes assessed as compound remaining measured after 45 mins by LC-MS/MS analysis; format: ADME, Microsome; conditions: read-out: Stability
[8] = test system: THP-1; experiment: Induction of apoptosis in human THP-1 cells assessed as viable cells at 10 uM measured after 24 hrs by Annexin V-FITC/propidium iodide double staining based assay (reference value: 93.02%); format: functional; conditions: read-out: Activity
[9] = test system: HL-60; experiment: Induction of apoptosis in human HL-60 cells assessed as viable cells at 5 uM measured after 24 hrs by Annexin V-FITC/propidium iodide double staining based assay (reference value: 92.68%); format: functional; conditions: read-out: Activity
[10] = test system: HL-60; experiment: Induction of apoptosis in human HL-60 cells assessed as late apoptotic cells at 5 uM measured after 24 hrs by Annexin V-FITC/propidium iodide double staining based assay (reference value: 3.78%); format: functional
[11] = test system: HL-60; experiment: Antiproliferative activity against human HL-60 cells assessed as growth inhibition measured after 72 hrs by CCK-8 assay; format: functional, cell-based; conditions: HL-60, 72 h
[12] = test system: THP-1; experiment: Antiproliferative activity against human THP-1 cells assessed as growth inhibition measured after 72 hrs by CCK-8 assay; format: functional, cell-based; conditions: THP-1, 72 h
[13] = test system: THP-1; experiment: In vivo antitumor activity against human THP-1 cells xenografted in female NOD SCID mouse assessed as tumor growth inhibition at 80 mg/kg, ip once daily after 10 days of tumor inoculation treated for 14 days relative to control; format: functional; conditions: THP-1, 336 h, time 14 day, read-out: TGI
[14] = Metabolic stability in rat liver microsomes assessed as intrinsic clearance by LC-MS/MS analysis; format: ADME, Microsome; conditions: read-out: CLH
[15] = Metabolic stability in rat liver microsomes assessed as compound remaining measured after 60 mins by LC-MS/MS analysis; format: ADME, Microsome; conditions: read-out: Stability
[16] = test system: THP-1; experiment: Induction of apoptosis in human THP-1 cells assessed as early apoptotic cells at 5 uM measured after 24 hrs by Annexin V-FITC/propidium iodide double staining based assay (reference value: 4.04%); format: functional
[17] = target: Induced myeloid leukemia cell differentiation protein Mcl-1 (Homo sapiens, UniProt Q07820); experiment: Binding affinity to Mcl-1 (unknown origin) pre-incubated for 30 mins followed by addition FAM-peptide further incubated for 20 mins by fluorescence polarization-based binding assay; conditions: read-out: Ki
Chain of Induced myeloid leukemia cell differentiation protein Mcl-1 (Q07820 whole entry): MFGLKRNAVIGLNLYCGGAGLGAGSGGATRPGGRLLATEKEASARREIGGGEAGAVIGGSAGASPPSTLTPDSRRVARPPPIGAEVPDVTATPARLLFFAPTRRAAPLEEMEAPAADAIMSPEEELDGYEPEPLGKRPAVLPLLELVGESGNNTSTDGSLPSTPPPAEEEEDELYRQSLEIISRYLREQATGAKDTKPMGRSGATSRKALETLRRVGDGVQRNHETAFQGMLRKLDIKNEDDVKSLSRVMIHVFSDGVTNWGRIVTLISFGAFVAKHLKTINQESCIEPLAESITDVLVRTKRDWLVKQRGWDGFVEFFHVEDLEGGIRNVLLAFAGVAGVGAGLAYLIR

[18] = test system: THP-1; experiment: Induction of apoptosis in human THP-1 cells assessed as viable cells at 5 uM measured after 24 hrs by Annexin V-FITC/propidium iodide double staining based assay (reference value: 93.02%); format: functional; conditions: read-out: Activity
[19] = Metabolic stability in rat plasma assessed as compound remaining measured after 60 mins by LC-MS/MS analysis; format: ADME, cell-free; conditions: read-out: Stability
[20] = test system: MOLM-13; experiment: Antiproliferative activity against human MOLM-13 cells assessed as growth inhibition measured after 72 hrs by CCK-8 assay; format: functional, cell-based; conditions: MOLM-13, 72 h
[21] = test system: THP-1; experiment: Induction of apoptosis in human THP-1 cells assessed as late apoptotic cells at 10 uM measured after 24 hrs by Annexin V-FITC/propidium iodide double staining based assay (reference value: 2.81%); format: functional
[22] = test system: HL-60; experiment: Induction of apoptosis in human HL-60 cells assessed as early apoptotic cells at 2.5 uM measured after 24 hrs by Annexin V-FITC/propidium iodide double staining based assay (reference value: 3.37%); format: functional
[23] = Metabolic stability in rat plasma assessed as compound remaining measured after 30 mins by LC-MS/MS analysis; format: ADME, cell-free; conditions: read-out: Stability
[24] = test system: THP-1; experiment: Induction of apoptosis in human THP-1 cells assessed as late apoptotic cells at 20 uM measured after 24 hrs by Annexin V-FITC/propidium iodide double staining based assay (reference value: 2.81%); format: functional
[25] = test system: THP-1; experiment: Induction of apoptosis in human THP-1 cells assessed as necrotic cells at 5 uM measured after 24 hrs by Annexin V-FITC/propidium iodide double staining based assay (reference value: 0.13%); format: functional
[26] = test system: THP-1; experiment: Induction of apoptosis in human THP-1 cells assessed as necrotic cells at 10 uM measured after 24 hrs by Annexin V-FITC/propidium iodide double staining based assay (reference value: 0.13%); format: functional
[27] = test system: HL-60; experiment: Induction of apoptosis in human HL-60 cells assessed as cleaved PARP at 10 to 20 uM measured after 24 hrs by Western blot analysis; format: functional, cell-based; conditions: dose 10-20 µM
[28] = Metabolic stability in rat plasma assessed as compound remaining measured immediately after addition of compound by LC-MS/MS analysis; format: ADME, cell-free; conditions: read-out: Stability
[29] = target: Bcl-2-like protein 1 (Homo sapiens, UniProt Q07817); experiment: Binding affinity to Bcl-xL (unknown origin) pre-incubated for 30 mins followed by addition FAM-peptide further incubated for 20 mins by fluorescence polarization-based binding assay
Chain of Bcl-2-like protein 1 (Q07817 whole entry): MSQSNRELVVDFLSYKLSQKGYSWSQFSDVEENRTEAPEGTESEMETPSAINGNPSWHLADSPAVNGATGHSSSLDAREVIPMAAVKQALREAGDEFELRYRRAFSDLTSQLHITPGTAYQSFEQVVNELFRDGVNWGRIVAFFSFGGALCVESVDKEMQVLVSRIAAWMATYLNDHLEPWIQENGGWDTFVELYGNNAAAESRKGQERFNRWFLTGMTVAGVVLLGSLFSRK

[30] = test system: THP-1; experiment: Induction of apoptosis in human THP-1 cells assessed as cleaved PARP at 10 to 20 uM measured after 24 hrs by Western blot analysis; format: functional, cell-based; conditions: dose 10-20 µM
[31] = test system: THP-1; experiment: Induction of apoptosis in human THP-1 cells assessed as late apoptotic cells at 5 uM measured after 24 hrs by Annexin V-FITC/propidium iodide double staining based assay (reference value: 2.81%); format: functional
[32] = test system: HL-60; experiment: Induction of apoptosis in human HL-60 cells assessed as necrotic cells at 2.5 uM measured after 24 hrs by Annexin V-FITC/propidium iodide double staining based assay (reference value: 0.18%); format: functional
[33] = Metabolic stability in rat plasma assessed as compound remaining measured after 120 mins by LC-MS/MS analysis; format: ADME, cell-free; conditions: read-out: Stability
[34] = Metabolic stability in rat liver microsomes assessed as compound remaining measured after 30 mins by LC-MS/MS analysis; format: ADME, Microsome; conditions: read-out: Stability
[35] = Metabolic stability in rat liver microsomes assessed as compound remaining measured after 5 mins by LC-MS/MS analysis; format: ADME, Microsome

| Structure (SMILES) | Activity [1] [%] | Activity [2] [%] | IC50 [3] [µM] | Activity [4] [%] | Activity [6] [%] | remaining at 0.75 h [7] [%] | viability at 10 µM [8] [%] | viability at 5 µM [9] [%] | Activity [10] [%] | IC50 [11] [µM] | IC50 [12] [µM] | inhibition in vivo at 80 mg/kg [13] [%] | microsomal CLint [14] [µL/min/mg] | remaining at 1 h [15] [%] | Activity [16] [%] | Ki [17] [µM] | viability at 5 µM [18] [%] | remaining at 1 h [19] [%] | IC50 [20] [µM] | Activity [21] [%] | further results |
| --- | --- | --- | --- | --- | --- | --- | --- | --- | --- | --- | --- | --- | --- | --- | --- | --- | --- | --- | --- | --- | --- |
| Cc1cc(OCCCc2c(C(=O)O)n(CCN3CCOCC3)c3c(-c4ccccc4Cn4cc(CCN(CCN5CCOCC5)S(=O)(=O)c5ccc(F)cc5)c5ccccc54)cccc23)cc(C)c1Cl | 4.14 | 46.1 | 8.33 | 0.2 | 24.61 | 46 | 91.2 | 81.9 | 13.47 | 5.2 | 8.83 | 57.4 | 30.6 | 34.1 | 4.1 | 0.024 | 93.2 | 94.8 | 8.52 | 4.12 | t1/2 ([5]; microsomes): 45.3 min; Activity [22]: 3.06%; remaining at 0.5 h [23]: 87.7%; Activity [24]: 6.3%; Activity [25]: 0.15%; Activity [26]: 0.14%; Activity [27]: Active; remaining at 0 min [28]: 100%; IC50 [29]: > 100 µM; Activity [30]: Active; Activity [31]: 2.59%; Activity [32]: 0.16%; remaining at 2 h [33]: 82.1%; remaining at 0.5 h [34]: 53%; Stability ([35]; microsomes, 5 min): 69.3% |
| Cc1nn(C)c(COc2ccc(N3CCN(S(=O)(=O)N(C)C)CC3)cc2)c1-c1cccc2c(CCCOc3cccc4ccccc34)c(C(=O)O)n(CCN3CCOCC3)c12 | 4.2 | 50.33 | 4.71 | 4.86 | 33.09 | 43.7 | 92.9 | 92.6 | 4.82 | 5.53 | 5.65 | 58.7 | 34.9 | 31.6 | 3.36 | 0.012 | 94 | 106 | 8.15 | 2.8 | half-life ([5]; liver microsomes): 39.7 min; Activity [22]: 0.97%; remaining at 0.5 h [23]: 104%; Activity [24]: 24.35%; Activity [25]: 0.15%; Activity [26]: 0.09%; Activity [27]: Active; remaining at 0 min [28]: 100%; IC50 [29]: > 100 µM; Activity [30]: Active; Activity [31]: 2.54%; Activity [32]: 0.71%; remaining at 2 h [33]: 114%; remaining at 0.5 h [34]: 51.8%; remaining at 5 min ([35]; liver microsomes, read-out: Stability): 77.1% |
